{"source": "patent US10130601B2", "about": "“Use of a composition comprising fish oil and juice for the treatment of inflammation” (Smartfish AS, priority 2013, dated 2018)", "key": {"[1]": {"experiment": "ALSFRS-R score (self-reported) in ALS patients", "type": "in vivo, human", "from_the_text": "Patients in the study self-reported the ALSFRS-R score. The Amyotrophic Lateral Sclerosis Functional Rating Scale (ALSFRS-R) is a score from 0-48 which assesses disability in patients with MND. It was developed by Cedarbaum and colleagues (Cedarbaum J M. The ALSFRS-R: a revised ALS functional rating scale that incorporates assessments of respiratory function. BDNF ALS Study Group (Phase III). J Neurol Sci 1999; 169: 13-21). There are twelve questions, some asking about daily activities and how much help a patient needs with them, and some about specific symptoms.\n1 for 8 months, no. 2 for 2 months, no. 6 for 4 months, no 7 for 5 months, and no. 11 for 4 months (Table 1). […] 1: 2.6 loss to 0.4 loss, no. 6: from 0.7 loss to 1 point gain, no. 11: from 3.5 loss to 0.5 loss. Said three patients were the patients receiving the composition of the present invention."}, "[2]": {"tested_on": "inflammatory genes in peripheral blood mononuclear cells", "experiment": "Inflammatory gene transcription in peripheral blood mononuclear cells of ALS patients", "type": "in vivo, human", "settings": "PBMCs", "from_the_text": "The aim of this study was to investigate in vivo baseline inflammatory gene transcription in peripheral blood mononuclear cells and the effects of tozilizumab (Actemra®) in 11 ALS patients and also measure the disability before and after the therapy comparing the FRS-R score (Functional Rating Scale). Fiala et al., (to be published). The patients were free to take nutritional supplements. Three patients were taking the composition used in the present invention, transcription results are presented in Example 1 together with the results from the ALSFRS-R score (The Amyotrophic Lateral Sclerosis Functional Rating Scale).\nIn vivo baseline inflammatory gene transcription in peripheral blood mononuclear cells of 11 ALS patients and the effects of tocilizumab (Actemra®) (cytokine antagonist) infusions were studied tocilizumab inhibits global interleukin-6 (IL6) signaling, a key mechanism in chronic rheumatoid disorder.\nAt base line one half of the ALS subjects had strong inflammatory activation (Group 1) (8 genes up regulated >4-fold, P<0.05 vs. controls) and the other half (Group 2) had weak activation (Group 2)."}}, "data": [{"substance": "tocilizumab [Actemra]", "values": [{"measurement": "FRS-R change After Actemra", "setting": "[1]; patient #1, spinal ALS, Group 1, before −2.6, treated 8 months, also took the composition", "result": "−0.4", "unit": "points/mo"}, {"measurement": "FRS-R change After Actemra", "setting": "[1]; patient #2, spinal ALS, Group 1, before −1.3, treated 2 months", "result": "−0.75", "unit": "points/mo"}, {"measurement": "FRS-R change After Actemra", "setting": "[1]; patient #6, spinal ALS, Group 2, before −0.7, treated 4 months, also took the composition", "result": "+1.0 points/mo"}, {"measurement": "FRS-R change After Actemra", "setting": "[1]; patient #7, spinal ALS, Group 2, before −0.37, treated 5 months", "result": "−2.0", "unit": "points/mo"}, {"measurement": "FRS-R change After Actemra", "setting": "[1]; patient #11, spinal ALS, Group unknown, before −3.5, treated 4 months, also took the composition", "result": "−0.5", "unit": "points/mo"}, {"measurement": "regulation of inflammatory genes after infusions", "setting": "[2]; ALS patients of Group 1 (strong inflammation)", "result": "down regulation"}, {"measurement": "regulation of inflammatory genes after infusions", "setting": "[2]; ALS patients of Group 2 (weak inflammation)", "result": "up regulation"}]}]}
